Data from patent US7939550B2, “Aminopyrazole derivatives, process for the preparation thereof, and composition for preventing or treating ischemic diseases containing the same” (Korea Research Institute of Chemical Technology, priority 2006, dated 2011).

These compounds were tested on Cardiomyocyte cell line H9c2 cells (assay: Inhibitory effect on ischemic cell death (chemical hypoxia, DAPI staining)). Details: Rattus norvegicus, derivative 10 μM in DMSO, 30 min pretreatment, then chemical hypoxia solution 1 to 2 hours, DAPI stain, fluorescence microscope, DMSO control 25.86385, read-out: Apoptosis (%).
Assay type: cell-based
Method: The aminopyrazole derivatives of the present invention were examined for ischemic cell death inhibitory effect in cells according to the following procedure.
Cardiomyocyte cell line H9c2 cells were cultured in DMEM (Dulbecco's modified Eagle's medium) supplemented with 10% fetal bovine serum and 1% penicillin/streptomycin (100× solution). The cells were grown in 35 mm dishes such that the number thereof becomes 1×10^4, and cultured at 37° C. for 48 hours in a CO2 incubator. The cells were treated with 0.1% DMSO only (control), or the solutions dissolving the derivatives of Examples 1 to 30 (10 μM) in DMSO respectively. After 30 minutes, the cells were washed with PBS, and continuously treated with the DMSO solution (control) or the above solutions dissolving the derivatives together with chemical hypoxia solution (106 mM NaCl, 4.4 mM KCl, 1 mM MgCl2, 38 mM NaHCO3, 2.5 mM CaCl2, 20 mM 2-deoxy glucose, 1 mM NaCN) for 1 to 2 hours, while evaluating the cell damage by microscope. At the time when the sufficient damage were observed, the cells were washed with 1 ml of PBS twice, and then treated to fix with 1 ml of 3.7% formaldehyde. The cells obtained were washed with 1 ml of PBS again, stained with DAPI, and then washed with 1 ml of PBS in three times. The cell death of the cells was observed by a fluorescence microscope, and the degree of the observed cell death was converted to percentages.
COC(=O)c1c(NC(=O)CSc2ccc(Br)cc2)cnn1CCc1ccccc1 [Example 16, 4-[2-(4-bromo-phenylsulfanyl)-acetylamino]-2-phenethyl-2H-pyrazole-3-carboxylic acid methyl ester] was tested, and the cytotoxicity at 10 µM was 10.8%.
In the case of COC(=O)c1nn(C)cc1NC(=O)CSc1ccc(Br)cc1 [Example 14, 4-[2-(4-bromo-phenylsulfanyl)-acetylamino]-1-methyl-1H-pyrazole-3-carboxylic acid methyl ester], the cytotoxicity at 10 µM is reported as 13.3%.
Compound COC(=O)c1nn(CCc2ccccc2)cc1NC(=O)C[S+]([O-])c1ccccn1 (stereo not drawn) [Example 9, 4-[2-(2-pyridylsulfinyl)-acetylamino]-1-phenethyl-1H-pyrazole-3-carboxylic acid methyl ester] has a cytotoxicity at 10 µM of 3.74%.
In the case of COC(=O)c1nn(C)cc1NC(=O)CSc1ccccc1 [Example 15, 4-[2-phenylsulfanylacetylamino]-1-methyl-1H-pyrazole-3-carboxylic acid methyl ester], the cytotoxicity at 10 µM is reported as 11.3%.
COC(=O)c1nn(Cc2ccccc2)cc1NC(=O)CSc1ccc(Br)cc1 [Example 12, 4-[2-(4-bromo-phenylsulfanyl)-acetylamino]-1-benzyl-1H-pyrazole-3-carboxylic acid methyl ester] was tested, and the cytotoxicity at 10 µM was 11.5%.
NC(=O)c1nn(CCc2ccccc2)cc1NC(=O)CSc1ccc(Br)cc1 [Example 25, 4-[2-(4-bromo-phenylsulfanyl)-acetylamino]-1-phenethyl-1H-pyrazole-3-carboxylic acid amide] showed a cytotoxicity at 10 µM of 6.07%.
Work on COC(=O)c1nn(CCc2ccccc2)cc1NC(=O)CSc1ccccc1N [Example 5, 4-[2-(2-amino-phenylsulfanyl)-acetylamino]-1-phenethyl-1H-pyrazole-3-carboxylic acid methyl ester] yielded a cytotoxicity at 10 µM of 6.48%.
Compound COC(=O)c1nn(CCc2ccccc2)cc1NC(=O)CSc1ccc(C)c(C)c1 [Example 11, 4-[2-(3,4-dimethyl-phenylsulfanyl)-acetylamino]-1-phenethyl-1H-pyrazole-3-carboxylic acid methyl ester] has a cytotoxicity at 10 µM of 15.7%.
COC(=O)c1nn(CCc2ccccc2)cc1NC(=O)CCSc1ccc(Br)cc1 [Example 18] showed a cytotoxicity at 10 µM of 8.75%.
O=C(CSc1ccc(Br)cc1)Nc1cn(CCc2ccccc2)nc1C1=NCCO1 [Example 24, 2-(4-bromo-phenylsulfanyl)-N-[3-(4,5-dihydro-oxazol-2-yl)-1-phenethyl-1H-pyrazol-4-yl]-acetamide] gave a cytotoxicity at 10 µM of 12.7%.
With COCc1nn(CCc2ccccc2)cc1NC(=O)CSc1ccc(Br)cc1 [Example 30, 2-(4-bromo-phenylsulfanyl)-N-(3-methoxymethyl-1-phenethyl-1H-pyrazol-4-yl)-acetamide] the cytotoxicity at 10 µM was 5.22%.
With COC(=O)c1nn(CCc2ccccc2)cc1NC(=O)CSc1ccc(F)cc1 [Example 7, 4-[2-(4-fluoro-phenylsulfanyl)-acetylamino]-1-phenethyl-1H-pyrazole-3-carboxylic acid methyl ester] the cytotoxicity at 10 µM was 6.49%.
O=C(CSc1ccc(Br)cc1)Nc1cn(CCc2ccccc2)nc1C(=O)O [Example 23, 4-[2-(4-bromo-phenylsulfanyl)-acetylamino]-1-phenethyl-1H-pyrazole-3-carboxylic acid] gave a cytotoxicity at 10 µM of 7.76%.
In the case of COC(=O)c1nn(CCc2ccccc2)cc1NC(=O)CCc1ccccc1 [Example 27, 4-[3-phenyl-propionylamino]-1-phenethyl-4H-pyrazole-3-carboxylic acid methyl ester], the cytotoxicity at 10 µM is reported as 5.08%.
COC(=O)c1nn(CCc2ccccc2)cc1NC(=O)CSc1ccccc1 [Example 2, 4-[2-(phenylsulfanyl)-acetylamino]-1-phenethyl-1H-pyrazole-3-carboxylic acid methyl ester] gave a cytotoxicity at 10 µM of 11%.
Compound COC(=O)c1nn(CCc2ccccc2)cc1NC(=O)CSc1ccc([N+](=O)[O-])cc1 [Example 4, 4-[2-(4-nitro-phenylsulfanyl)-acetylamino]-1-phenethyl-1H-pyrazole-3-carboxylic acid methyl ester] has a cytotoxicity at 10 µM of 3.74%.
In the case of COC(=O)c1nn(CCc2ccccc2)cc1NC(=O)COc1ccc(Br)cc1 [Example 28, 4-[2-(4-bromophenoxy)-acetylamino]-1-phenethyl-1H-pyrazole-3-carboxylic acid methyl ester], the cytotoxicity at 10 µM is reported as 3.74%.
With COC(=O)c1nn(CCc2ccccc2)cc1NC(=O)CSc1ccccn1 [Example 8, 4-[2-(2-pyridylsulfanyl)-acetylamino]-1-phenethyl-1H-pyrazole-3-carboxylic acid methyl ester] the cytotoxicity at 10 µM was 5.65%.
For COC(=O)c1nn(CCc2ccccc2)cc1NC(=O)CS(=O)(=O)c1ccccn1 [Example 10, 4-[2-(2-pyridylsulfonyl)-acetylamino]-1-phenethyl-1H-pyrazole-3-carboxylic acid methyl ester], the cytotoxicity at 10 µM was 7.27%.
COC(=O)c1nn(Cc2ccccc2)cc1NC(=O)CSc1ccccc1 [Example 13, 4-[2-phenylsulfanylacetylamino]-1-benzyl-1H-pyrazole-3-carboxylic acid methyl ester] showed a cytotoxicity at 10 µM of 9.81%.
For COC(=O)c1nn(CCc2ccccc2)cc1NC(=O)C(Sc1ccc(Br)cc1)c1ccccc1 (stereo not drawn) [Example 20, 4-[2-(4-bromo-phenylsulfanyl)-2-phenyl-acetylamino]-1-phenethyl-1H-pyrazole-3-carboxylic acid methyl ester], the cytotoxicity at 10 µM was 6.07%.
In the case of COC(=O)c1nn(CCc2ccccc2)cc1NC(=O)CSc1cccc(OC)c1 [Example 3, 4-[2-(3-methoxy-phenylsulfanyl)-acetylamino]-1-phenethyl-1H-pyrazole-3-carboxylic acid methyl ester], the cytotoxicity at 10 µM is reported as 8.26%.
Compound COC(=O)c1c(NC(=O)CSc2ccc(Br)cc2)cnn1C [Example 17, 4-[2-(4-bromo-phenylsulfanyl)-acetylamino]-2-methyl-2H-pyrazole-3-carboxylic acid methyl ester] has a cytotoxicity at 10 µM of 13.9%.
O=C(CSc1ccc(Br)cc1)Nc1cn(CCc2ccccc2)nc1CO [Example 26, 2-(4-bromo-phenylsulfanyl)-N-(3-hydroxymethyl-1-phenethyl-4H-pyrazol-4-yl)-acetamide] showed a cytotoxicity at 10 µM of 7.27%.
In the case of COC(=O)c1cc(NC(=O)CSc2ccccc2)n(C)n1 [Example 22, 1-methyl-5-(2-phenylsulfanyl-acetylamino)-1H-pyrazole-3-carboxylic acid methyl ester], the cytotoxicity at 10 µM is reported as 10.7%.
CCOC(=O)c1cnn(CCc2ccccc2)c1NC(=O)CSc1ccc(Br)cc1 [Example 19, 5-[2-(4-bromo-phenylsulfanyl)-acetylamino]-1-phenethyl-1H-pyrazole-4-carboxylic acid ethyl ester] was tested, and the cytotoxicity at 10 µM was 8.19%.
With COC(=O)c1nn(CCc2ccccc2)cc1NC(=O)CNc1ccc(Br)cc1 [Example 29, 4-[2-(4-bromo-phenylamino)-acetylamino]-1-phenethyl-1H-pyrazole-3-carboxylic acid methyl ester] the cytotoxicity at 10 µM was 9.31%.
With COC(=O)c1cc(NC(=O)CSc2ccc(Br)cc2)n(C)n1 [Example 21, 5-[2-(4-bromo-phenylsulfanyl)-acetylamino]-1-methyl-1H-pyrazole-3-carboxylic acid methyl ester] the cytotoxicity at 10 µM was 8.33%.
COC(=O)c1nn(CCc2ccccc2)cc1NC(=O)CSc1ccc(Br)cc1 [Example 1, 4-[2-(4-bromo-phenylsulfanyl)-acetylamino]-1-phenethyl-1H-pyrazole-3-carboxylic acid methyl ester] gave a cytotoxicity at 10 µM of 5.79%.
COC(=O)c1nn(CCc2ccccc2)cc1NC(=O)CSc1ccc(C)cc1 [Example 6, 4-[2-(4-methyl-phenylsulfanyl)-acetylamino]-1-phenethyl-1H-pyrazole-3-carboxylic acid methyl ester] gave a cytotoxicity at 10 µM of 5.43%.
